Data from the supplement of paper PMC8149375.

What was measured:
Conditions in all cases: treatment: drug alone; 5 days
[1] = test system: 769-P; experiment: GI50, drug alone; higher = less potent
Protocol: (§1)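 Primary HTS: 8 RCC cell lines treated with 8 doses (up to 10 uM) of each library drug alone for 5 days; viability read by CellTiter-Glo and normalised to DMSO. GI50 was fitted with XLfit (4-parameter), AUC is the area under the dose-response curve, and minimum viability is the lowest fraction of DMSO viability across doses.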

[2] = test system: 786-O; experiment: GI50, drug alone; higher = less potent
Protocol: as §1

[3] = test system: A498; experiment: GI50, drug alone; higher = less potent
Protocol: as §1

[4] = test system: ACHN; experiment: GI50, drug alone; higher = less potent
Protocol: as §1

[5] = test system: CAKI-1; experiment: GI50, drug alone; higher = less potent
Protocol: as §1

[6] = test system: SN12C; experiment: GI50, drug alone; higher = less potent
Protocol: as §1

[7] = test system: TK-10; experiment: GI50, drug alone; higher = less potent
Protocol: as §1

[8] = test system: UO-31; experiment: GI50, drug alone; higher = less potent
Protocol: as §1

[9] = test system: 769-P; experiment: minimum viability across doses, drug alone, relative to DMSO (fraction); higher = less growth inhibition
Protocol: as §1

[10] = test system: 786-O; experiment: as above
Protocol: as §1

[11] = test system: A498; experiment: as above
Protocol: as §1

[12] = test system: ACHN; experiment: as above
Protocol: as §1

[13] = test system: CAKI-1; experiment: as above
Protocol: as §1

[14] = test system: SN12C; experiment: as above
Protocol: as §1

[15] = test system: TK-10; experiment: as above
Protocol: as §1

[16] = test system: UO-31; experiment: as above
Protocol: as §1

[17] = test system: 769-P; experiment: AUC of dose-response viability curve, drug alone (arbitrary (AUC of normalised viability)); higher = less growth inhibition
Protocol: as §1

[18] = test system: 786-O; experiment: as above
Protocol: as §1

[19] = test system: A498; experiment: as above
Protocol: as §1

[20] = test system: ACHN; experiment: as above
Protocol: as §1

[21] = test system: CAKI-1; experiment: as above
Protocol: as §1

[22] = test system: SN12C; experiment: as above
Protocol: as §1

[23] = test system: TK-10; experiment: as above
Protocol: as §1

[24] = test system: UO-31; experiment: as above
Protocol: as §1

| Structure (SMILES) | GI50, drug alone [1] | GI50, drug alone [2] | GI50, drug alone [3] | GI50, drug alone [4] | GI50, drug alone [5] | GI50, drug alone [6] | GI50, drug alone [7] | GI50, drug alone [8] | minimum viability across doses [9] | minimum viability across doses [10] | minimum viability across doses [11] | minimum viability across doses [12] | minimum viability across doses [13] | minimum viability across doses [14] | minimum viability across doses [15] | minimum viability across doses [16] | AUC of dose-response viability curve [17] | AUC of dose-response viability curve [18] | AUC of dose-response viability curve [19] | AUC of dose-response viability curve [20] | AUC of dose-response viability curve [21] | AUC of dose-response viability curve [22] | AUC of dose-response viability curve [23] | AUC of dose-response viability curve [24] |
| --- | --- | --- | --- | --- | --- | --- | --- | --- | --- | --- | --- | --- | --- | --- | --- | --- | --- | --- | --- | --- | --- | --- | --- | --- |
| COc1cc2c(N3CCN(C(=O)Nc4ccc(OC(C)C)cc4)CC3)ncnc2cc1OCCCN1CCCCC1 [Tandutinib (MLN518)] | > 10 µM | > 10 µM | > 10 µM | > 10 µM | > 10 µM | > 10 µM | > 10 µM | > 10 µM | 0.818 | 0.609 | 0.96 | 0.767 | 0.729 | 0.74 | 0.818 | 1.09 | 3.32 | 3.61 | 3.63 | 3.5 | 3.41 | 3.14 | 3.23 | 4.36 |
| CNC(=O)c1cc(COc2nnc(Nc3ccc(Cl)cc3)c3ccoc23)ccn1 [Telatinib (BAY 57-9352)] | 9.79 µM | 3.22 µM | > 10 µM | 9.99 µM | 6.76 µM | > 10 µM | 6.45 µM | > 10 µM | 0.484 | 0.0383 | 0.951 | 0.497 | 0.267 | 0.79 | 0.319 | 0.749 | 3.4 | 2.61 | 4.32 | 3.42 | 3.3 | 3.27 | 2.96 | 4.45 |
| CC(=O)Nc1ccc(NC(=S)NC(=O)c2ccc(C(C)(C)C)cc2)cc1 [Tenovin-1] | 0.818 µM | 0.17 µM | 0.978 µM | 9.84 µM | > 10 µM | > 10 µM | 5.19 µM | 0.264 µM | 0.0841 | 0.00113 | 0.0355 | 0.515 | 0.536 | 0.762 | 0.412 | 0.00581 | 2.48 | 1.52 | 2.77 | 2.75 | 2.96 | 3.15 | 2.63 | 2.6 |
| O=C1CCC(N2C(=O)c3ccccc3C2=O)C(=O)N1 (stereo unspecified) [Thalidomide] | > 10 µM | 0.288 µM | > 10 µM | > 10 µM | > 10 µM | > 10 µM | > 10 µM | > 10 µM | 0.949 | 0.0165 | 1.05 | 0.802 | 0.932 | 0.88 | 0.824 | 1.21 | 3.56 | 2 | 4.19 | 3.18 | 3.56 | 3.37 | 3.12 | 4.89 |
